{
  "source": "ChEMBL document CHEMBL5357068",
  "about": "“Discovery of Novel TLR7 Agonists as Systemic Agent for Combination With aPD1 for Use in Immuno-oncology” (ACS Med Chem Lett, 2024)",
  "key": {"Blood [1]": {"system": "Blood", "assay": "Induction of MX1 secretion in human whole blood", "type": "functional, tissue-based"}, "[2]": {"assay": "Drug concentration in Balb/c mouse at 0.5 mg/kg, iv measured after 5 min by LC-MS analysis", "type": "ADME, organism-based", "conditions": "in vivo, read-out: Drug uptake"}, "[3]": {"assay": "Metabolic stability in mouse liver microsomes assessed as half-life", "type": "ADME, Microsome"}, "[4]": {"molecular_target": "Toll-like receptor 4 (Homo sapiens) (UniProt O00206)", "sequence (O00206 whole entry)": "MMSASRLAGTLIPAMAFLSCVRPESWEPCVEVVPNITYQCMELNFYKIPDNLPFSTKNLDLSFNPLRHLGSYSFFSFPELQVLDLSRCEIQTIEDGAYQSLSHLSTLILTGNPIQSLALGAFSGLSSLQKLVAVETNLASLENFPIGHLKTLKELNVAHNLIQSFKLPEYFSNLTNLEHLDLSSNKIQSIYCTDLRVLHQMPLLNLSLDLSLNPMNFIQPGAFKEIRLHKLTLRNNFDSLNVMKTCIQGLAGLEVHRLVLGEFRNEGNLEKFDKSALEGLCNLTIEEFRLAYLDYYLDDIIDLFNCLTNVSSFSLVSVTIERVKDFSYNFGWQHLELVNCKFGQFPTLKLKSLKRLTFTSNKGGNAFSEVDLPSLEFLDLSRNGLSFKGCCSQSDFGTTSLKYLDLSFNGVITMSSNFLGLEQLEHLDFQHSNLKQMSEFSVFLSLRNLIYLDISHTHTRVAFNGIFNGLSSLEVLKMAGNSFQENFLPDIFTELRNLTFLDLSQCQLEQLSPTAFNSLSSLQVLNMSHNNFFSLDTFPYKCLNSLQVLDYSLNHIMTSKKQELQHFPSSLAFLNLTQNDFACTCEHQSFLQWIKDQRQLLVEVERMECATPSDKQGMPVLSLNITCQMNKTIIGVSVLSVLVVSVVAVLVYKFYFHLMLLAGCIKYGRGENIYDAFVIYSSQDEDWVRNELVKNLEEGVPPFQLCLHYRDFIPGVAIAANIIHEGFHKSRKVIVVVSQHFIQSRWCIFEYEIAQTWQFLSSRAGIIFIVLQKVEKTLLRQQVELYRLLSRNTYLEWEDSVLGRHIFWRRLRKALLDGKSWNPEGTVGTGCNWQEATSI", "assay": "Agonist activity at human TLR4"}, "[5]": {"assay": "Permeability of compound at pH 5.5 by PAMPA", "type": "ADME", "conditions": "read-out: permeability"}, "[6]": {"assay": "Inhibition of GPCR (unknown origin)", "parameters": "species or system Homo sapiens"}, "[7]": {"assay": "Metabolic stability in mouse liver microsomes assessed as compound remaining", "type": "ADME, Microsome"}, "[8]": {"molecular_target": "T1, Toll-like receptor 9 (Homo sapiens) (UniProt Q9NR96)", "T1 sequence (whole entry)": "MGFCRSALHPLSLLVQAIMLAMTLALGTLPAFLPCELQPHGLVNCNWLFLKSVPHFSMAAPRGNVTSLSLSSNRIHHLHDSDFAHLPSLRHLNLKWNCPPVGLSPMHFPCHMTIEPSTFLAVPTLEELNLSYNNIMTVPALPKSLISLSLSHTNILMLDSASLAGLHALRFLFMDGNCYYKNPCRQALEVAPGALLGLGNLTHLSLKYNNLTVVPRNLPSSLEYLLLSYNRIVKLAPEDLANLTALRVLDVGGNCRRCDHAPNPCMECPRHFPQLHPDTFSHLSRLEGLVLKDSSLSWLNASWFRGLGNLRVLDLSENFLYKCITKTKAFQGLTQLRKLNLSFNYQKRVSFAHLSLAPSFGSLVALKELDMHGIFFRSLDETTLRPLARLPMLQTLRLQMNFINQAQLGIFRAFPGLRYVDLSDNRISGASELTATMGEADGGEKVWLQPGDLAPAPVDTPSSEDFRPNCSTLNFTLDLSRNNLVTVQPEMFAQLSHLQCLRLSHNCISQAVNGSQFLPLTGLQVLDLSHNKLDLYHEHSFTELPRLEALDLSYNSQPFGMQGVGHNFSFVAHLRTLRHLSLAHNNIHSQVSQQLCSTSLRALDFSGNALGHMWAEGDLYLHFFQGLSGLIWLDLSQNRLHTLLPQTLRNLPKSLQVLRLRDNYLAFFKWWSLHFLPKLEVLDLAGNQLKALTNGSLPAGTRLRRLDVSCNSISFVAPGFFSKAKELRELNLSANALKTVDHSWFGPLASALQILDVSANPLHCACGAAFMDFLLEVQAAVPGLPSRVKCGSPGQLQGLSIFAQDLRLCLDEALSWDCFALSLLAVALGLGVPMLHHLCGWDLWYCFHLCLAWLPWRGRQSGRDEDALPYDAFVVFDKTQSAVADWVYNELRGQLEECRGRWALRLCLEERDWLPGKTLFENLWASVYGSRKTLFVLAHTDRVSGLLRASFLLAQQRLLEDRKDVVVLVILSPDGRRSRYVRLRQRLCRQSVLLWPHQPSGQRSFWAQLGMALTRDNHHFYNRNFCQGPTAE", "assay": "Agonist activity at human TLR9"}, "Blood [9]": {"system": "Blood", "assay": "Induction of IFIT3 secretion in human whole blood", "type": "functional, tissue-based"}, "[10]": {"assay": "Clearance in Balb/c mouse at 0.5 mg/kg, iv measured after 2 hrs by LC-MS analysis", "type": "ADME, organism-based", "conditions": "in vivo"}, "[11]": {"molecular_target": "Toll-like receptor 3 (Homo sapiens) (UniProt O15455)", "sequence (O15455 whole entry)": "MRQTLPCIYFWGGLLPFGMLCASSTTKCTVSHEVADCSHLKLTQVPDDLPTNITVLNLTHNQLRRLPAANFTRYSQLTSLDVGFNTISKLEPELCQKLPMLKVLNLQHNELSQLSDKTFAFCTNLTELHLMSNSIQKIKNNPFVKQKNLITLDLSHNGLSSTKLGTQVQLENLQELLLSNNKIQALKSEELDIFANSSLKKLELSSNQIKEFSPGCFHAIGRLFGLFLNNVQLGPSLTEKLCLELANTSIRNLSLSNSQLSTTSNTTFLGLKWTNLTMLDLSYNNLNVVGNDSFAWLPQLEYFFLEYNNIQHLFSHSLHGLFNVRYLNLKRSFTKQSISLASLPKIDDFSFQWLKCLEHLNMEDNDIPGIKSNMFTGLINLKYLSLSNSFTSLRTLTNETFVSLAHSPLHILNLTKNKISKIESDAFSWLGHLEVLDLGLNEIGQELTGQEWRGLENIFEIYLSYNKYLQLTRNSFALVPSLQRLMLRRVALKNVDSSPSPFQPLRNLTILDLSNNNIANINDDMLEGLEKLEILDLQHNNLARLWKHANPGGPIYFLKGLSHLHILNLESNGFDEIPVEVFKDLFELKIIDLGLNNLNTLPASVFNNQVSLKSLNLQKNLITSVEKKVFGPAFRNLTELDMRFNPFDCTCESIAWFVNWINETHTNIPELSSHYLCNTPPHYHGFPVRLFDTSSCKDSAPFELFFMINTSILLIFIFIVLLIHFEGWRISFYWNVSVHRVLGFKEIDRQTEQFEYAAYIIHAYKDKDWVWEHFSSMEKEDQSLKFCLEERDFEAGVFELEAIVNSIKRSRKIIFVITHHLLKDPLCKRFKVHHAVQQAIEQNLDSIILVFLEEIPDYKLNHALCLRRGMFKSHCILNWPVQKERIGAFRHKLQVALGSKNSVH", "assay": "Agonist activity at human TLR3"}, "[12]": {"assay": "AUClast in Balb/c mouse at […], iv measured after 2 hrs by LC-MS analysis", "type": "ADME, organism-based", "parameters": "time 2 hrs, dose 0.15 mg/kg, route iv", "conditions": "in vivo"}, "[13]": {"molecular_target": "Voltage-gated inwardly rectifying potassium channel KCNH2 (Homo sapiens, UniProt Q12809)", "sequence (Q12809 whole entry)": "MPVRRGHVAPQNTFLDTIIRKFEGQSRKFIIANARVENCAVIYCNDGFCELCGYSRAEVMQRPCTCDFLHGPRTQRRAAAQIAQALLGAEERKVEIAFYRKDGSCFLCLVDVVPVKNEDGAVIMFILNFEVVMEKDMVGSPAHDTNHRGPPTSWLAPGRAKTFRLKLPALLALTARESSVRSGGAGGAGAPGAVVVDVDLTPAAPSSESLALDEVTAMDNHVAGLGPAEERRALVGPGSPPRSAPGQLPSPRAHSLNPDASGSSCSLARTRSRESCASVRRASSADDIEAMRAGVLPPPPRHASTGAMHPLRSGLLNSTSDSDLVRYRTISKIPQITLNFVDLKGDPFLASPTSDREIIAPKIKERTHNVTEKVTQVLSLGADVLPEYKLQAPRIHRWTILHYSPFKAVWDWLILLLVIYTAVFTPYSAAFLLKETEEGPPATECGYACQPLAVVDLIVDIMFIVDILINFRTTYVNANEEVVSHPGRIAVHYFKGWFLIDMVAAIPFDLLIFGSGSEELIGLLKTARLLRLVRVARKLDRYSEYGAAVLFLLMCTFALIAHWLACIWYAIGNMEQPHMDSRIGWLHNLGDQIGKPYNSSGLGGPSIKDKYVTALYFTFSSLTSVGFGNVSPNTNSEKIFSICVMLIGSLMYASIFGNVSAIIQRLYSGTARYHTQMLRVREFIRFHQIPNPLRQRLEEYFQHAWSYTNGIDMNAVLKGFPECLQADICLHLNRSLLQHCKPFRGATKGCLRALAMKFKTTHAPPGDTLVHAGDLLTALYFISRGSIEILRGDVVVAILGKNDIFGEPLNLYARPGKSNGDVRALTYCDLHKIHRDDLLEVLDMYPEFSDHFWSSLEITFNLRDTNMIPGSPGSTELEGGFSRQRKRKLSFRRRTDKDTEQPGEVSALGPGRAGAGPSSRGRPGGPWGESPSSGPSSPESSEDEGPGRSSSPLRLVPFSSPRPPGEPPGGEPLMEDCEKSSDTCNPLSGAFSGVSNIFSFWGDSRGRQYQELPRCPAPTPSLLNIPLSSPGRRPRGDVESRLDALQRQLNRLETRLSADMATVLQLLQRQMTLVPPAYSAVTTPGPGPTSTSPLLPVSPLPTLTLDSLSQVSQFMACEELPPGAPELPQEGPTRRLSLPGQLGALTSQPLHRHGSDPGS", "assay": "Inhibition of hERG by patch clamp assay", "type": "toxicity"}, "Blood [14]": {"system": "Blood", "assay": "Induction of TNF-alpha secretion in mouse whole blood", "type": "functional, tissue-based"}, "[15]": {"molecular_target": "T2, Nuclear receptor subfamily 1 group I member 2 (Homo sapiens, UniProt O75469)", "T2 sequence (O75469 whole entry)": "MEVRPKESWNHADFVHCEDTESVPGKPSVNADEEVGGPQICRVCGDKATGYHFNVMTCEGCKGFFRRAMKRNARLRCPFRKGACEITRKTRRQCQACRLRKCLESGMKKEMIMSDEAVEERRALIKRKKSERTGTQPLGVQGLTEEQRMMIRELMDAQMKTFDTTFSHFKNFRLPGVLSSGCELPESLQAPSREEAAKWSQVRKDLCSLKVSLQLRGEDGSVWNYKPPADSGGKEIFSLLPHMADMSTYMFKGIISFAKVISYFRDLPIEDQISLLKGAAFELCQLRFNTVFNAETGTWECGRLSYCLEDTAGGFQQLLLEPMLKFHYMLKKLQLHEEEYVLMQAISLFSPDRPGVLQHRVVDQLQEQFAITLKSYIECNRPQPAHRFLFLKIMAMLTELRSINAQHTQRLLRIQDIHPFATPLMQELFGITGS", "assay": "Transactivation of PXR (unknown origin)"}, "CT26": {"system": "CT26", "assay": "Cytotoxicity against mouse CT26 cells", "type": "toxicity, cell-based"}, "Blood [16]": {"system": "Blood", "assay": "Induction of MX1 secretion in mouse whole blood", "type": "functional, tissue-based"}, "[17]": {"assay": "Protein binding in cynomolgus monkey plasma assessed as free fraction", "type": "ADME, cell-free, Macaca fascicularis"}, "[18]": {"molecular_target": "Toll-like receptor 2 (Homo sapiens) (UniProt O60603)", "sequence (O60603 whole entry)": "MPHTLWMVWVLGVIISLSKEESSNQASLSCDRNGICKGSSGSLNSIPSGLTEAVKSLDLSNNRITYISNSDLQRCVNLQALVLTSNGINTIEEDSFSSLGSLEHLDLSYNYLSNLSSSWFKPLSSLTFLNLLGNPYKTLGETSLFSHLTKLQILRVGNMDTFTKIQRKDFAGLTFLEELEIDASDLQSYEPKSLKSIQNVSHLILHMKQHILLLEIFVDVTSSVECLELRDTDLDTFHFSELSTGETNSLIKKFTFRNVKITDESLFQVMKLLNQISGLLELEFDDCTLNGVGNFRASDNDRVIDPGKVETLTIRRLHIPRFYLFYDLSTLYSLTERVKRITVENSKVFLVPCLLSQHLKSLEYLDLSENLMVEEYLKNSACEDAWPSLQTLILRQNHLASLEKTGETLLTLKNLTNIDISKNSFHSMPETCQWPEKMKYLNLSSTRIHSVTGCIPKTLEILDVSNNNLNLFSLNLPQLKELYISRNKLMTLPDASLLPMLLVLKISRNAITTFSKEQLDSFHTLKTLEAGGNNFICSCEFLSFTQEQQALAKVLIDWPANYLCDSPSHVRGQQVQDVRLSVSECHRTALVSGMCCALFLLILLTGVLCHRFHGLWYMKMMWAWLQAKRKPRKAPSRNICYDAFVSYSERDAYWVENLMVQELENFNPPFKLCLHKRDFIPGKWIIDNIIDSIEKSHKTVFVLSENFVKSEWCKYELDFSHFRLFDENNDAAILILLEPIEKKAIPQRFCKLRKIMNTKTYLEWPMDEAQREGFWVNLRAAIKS", "assay": "Agonist activity at human TLR2"}, "Mus musculus [19]": {"system": "Mus musculus", "assay": "Induction of IFN-alpha production in iv dosed Balb/c mouse serum measured after 6 hrs by ELISA analysis", "type": "functional, organism-based", "conditions": "dose lower […], dose upper 0.5 mg/kg"}, "[20]": {"assay": "AUClast in Balb/c mouse at 0.5 mg/kg, iv measured after 2 hrs by LC-MS analysis", "type": "ADME, organism-based", "parameters": "dose 0.5 mg/kg, time 2 hrs, route iv", "conditions": "in vivo"}, "[21]": {"assay": "Drug concentration in Balb/c mouse at […], iv measured after 5 min by LC-MS analysis", "type": "ADME, organism-based", "conditions": "in vivo, dose 0.15 mg/kg, read-out: Drug uptake"}, "THP-1": {"system": "THP-1", "assay": "Cytotoxicity against human THP-1 cells", "type": "toxicity, cell-based"}, "[22]": {"assay": "Metabolic stability in human liver microsomes assessed as compound remaining", "type": "ADME, Microsome"}, "[23]": {"assay": "Protein binding in human plasma assessed as free fraction", "type": "ADME, cell-free"}, "Blood [24]": {"system": "Blood", "assay": "Induction of IP-10 secretion in mouse whole blood", "type": "functional, tissue-based"}, "Blood [25]": {"system": "Blood", "assay": "Induction of IFIT3 secretion in mouse whole blood", "type": "functional, tissue-based"}, "[26]": {"assay": "Permeability of compound across apical to basolateral side in human Caco-2 cells", "type": "ADME, cell-based", "conditions": "read-out: permeability"}, "Blood [27]": {"system": "Blood", "assay": "Induction of IFIT1 secretion in mouse whole blood", "type": "functional, tissue-based"}, "Mus musculus [28]": {"system": "Mus musculus", "assay": "Induction of IFN-alpha production in Balb/c mouse serum at […], iv measured after 6 hrs by ELISA analysis", "type": "functional, organism-based"}},
  "note": "The source made the active and inactive calls. No cut-off for these calls is given here.",
  "data": [
    {"compound": "CCC[C@@H](CCO)Nc1nc(N)nc2cnn(Cc3ccc(CNC4CCOCC4)cc3OC)c12", "values": [
      {"measurement": "EC50", "setting": "Blood [1]", "result": 0.09, "unit": "nM"},
      {"measurement": "concentration at 5 min", "setting": "[2]", "result": 139, "unit": "nM"},
      {"measurement": "half-life", "setting": "[3]", "result": 1.42, "unit": "h"},
      {"measurement": "EC", "setting": "[4]", "result": "> 5", "unit": "µM"},
      {"measurement": "Papp", "setting": "[5]", "result": 0.95, "unit": "×10⁻⁶ cm/s"},
      {"measurement": "IC50", "setting": "[6]", "result": "> 30000", "unit": "nM"},
      {"measurement": "Stability", "setting": "[7]", "result": 81, "unit": "%"},
      {"measurement": "EC", "setting": "[8]", "result": "> 5", "unit": "µM"},
      {"measurement": "EC50", "setting": "Blood [9]", "result": 0.11, "unit": "nM"},
      {"measurement": "clearance", "setting": "[10]", "result": 160, "unit": "mL/min/kg"},
      {"measurement": "EC", "setting": "[11]", "result": "> 5", "unit": "µM"},
      {"measurement": "AUC(0-t) at 2 h", "setting": "[12]", "result": 0.075, "unit": "µM·h"},
      {"measurement": "IC50", "setting": "[13]", "result": "≥ 45000", "unit": "nM"},
      {"measurement": "EC50", "setting": "Blood [14]", "result": 3.4, "unit": "nM"},
      {"measurement": "EC", "setting": "[15]", "result": "> 50", "unit": "nM"},
      {"measurement": "EC", "setting": "CT26", "result": "> 25", "unit": "µM"},
      {"measurement": "EC50", "setting": "Blood [16]", "result": 0.18, "unit": "nM"},
      {"measurement": "fraction unbound", "setting": "[17]", "result": 0.31},
      {"measurement": "EC", "setting": "[18]", "result": "> 5", "unit": "µM"},
      {"measurement": "Activity", "setting": "Mus musculus [19]", "result": "Dose-Dependent Effect"},
      {"measurement": "AUC(0-t) at 2 h", "setting": "[20]", "result": 0.183, "unit": "µM·h"},
      {"measurement": "concentration at 5 min", "setting": "[21]", "result": 85, "unit": "nM"},
      {"measurement": "EC", "setting": "THP-1", "result": "> 25", "unit": "µM"},
      {"measurement": "Stability", "setting": "[22]", "result": 75, "unit": "%"},
      {"measurement": "fraction unbound", "setting": "[23]", "result": 0.5},
      {"measurement": "EC50", "setting": "Blood [24]", "result": 0.32, "unit": "nM"},
      {"measurement": "EC50", "setting": "Blood [25]", "result": 0.13, "unit": "nM"},
      {"measurement": "Papp A→B", "setting": "[26]", "result": 1.4, "unit": "×10⁻⁶ cm/s"},
      {"measurement": "EC50", "setting": "Blood [27]", "result": 0.19, "unit": "nM"},
      {"measurement": "Activity", "setting": "Mus musculus [28]", "result": "inactive"}
    ]}
  ]
}
